Source: article PMC10388305, “Synthesis and Evaluation of a Monomethyl Auristatin E—Integrin αvβ6 Binding Peptide–Drug Conjugate for Tumor Targeted Drug Delivery” (Journal of Medicinal Chemistry, 2023)

Test system: MIA PaCa-2 (−) cells
Assay: Cell binding assay, MIA PaCa-2
Format: cell-based
Settings: 1 h, 37 °C, γ-counter, n = 3
From the text: Binding to cells with minimal to no expression of integrin αvβ6 was low at 4.4 ± 0.1% to DX3puro cells and 7.9 ± 0.4% to pancreatic MIA PaCa-2 cells. Binding of [^64Cu]PDC-1 to DX3puroβ6 (+) and BxPC-3 (+) was reduced by adding increasing amounts of DOTA-PDC-1, illustrating that the αvβ6-selective uptake could be blocked (Figure S3). Internalization of [^64Cu]-PDC-1 into cells was high with >50% of the bound radioactivity internalized for all cells expressing the integrin αvβ6. In comparison, cell binding of [^64Cu]2 to DX3puroβ6 (+) cells was 58.8 ± 2.3, and 3.3 ± 0.4% to the DX3puro (−) cells.
Cell binding and internalization assay. Binding and internalization were determined as previously described. […] The fraction of bound radioactivity was determined with a γ-counter (by measuring cell pellet and combined supernatants). To determine the fraction of internalized radioactivity, the cells were re-pelleted, and re-suspended in acidic wash buffer (0.2 M sodium acetate, 0.5 M sodium chloride, pH = 2.5, 300 μL, 4 °C, 5 min) to release surface bound activity, followed by a wash with PBS (300 μL). The internalized fraction was determined with a γ-counter (cell pellet vs. radioactivity released into supernatant). A Wizard 1470 or Wizard 2 2470 automatic γ-counter (Perkin-Elmer, Waltham, MA) was used to measure radioactivity samples. […]

CC[C@H](C)[C@@H]([C@@H](CC(=O)N1CCC[C@H]1[C@H](OC)[C@@H](C)C(=O)N[C@H](C)[C@@H](O)c1ccccc1)OC)N(C)C(=O)[C@@H](NC(=O)[C@H](C(C)C)N(C)C(=O)OCc1ccc(NC(=O)[C@H](CCCNC(N)=O)NC(=O)[C@@H](NC(=O)CCOCCOCCNC(=O)CCN2C(=O)CC(SC[C@H](NC(=O)CN3CCN(CC(=O)O)CCN(CC(=O)O)CCN(CC(=O)O)CC3)C(=O)NCCOCCOCCOCCOCCOCCOCCOCCOCCOCCOCCOCCOCCOCCOCCOCCOCCOCCOCCOCCOCCOCCOCCOCCOCCOCCOCCOCCOCCC(=O)N[C@@H](CC(N)=O)C(=O)N[C@@H](C)C(=O)N[C@H](C(=O)N3CCC[C@H]3C(=O)N[C@@H](CC(N)=O)C(=O)N[C@@H](CC(C)C)C(=O)N[C@@H](CCCNC(=N)N)C(=O)NCC(=O)N[C@@H](CC(=O)O)C(=O)N[C@@H](CC(C)C)C(=O)N[C@@H](CCC(N)=O)C(=O)N[C@H](C(=O)N[C@@H](CC(C)C)C(=O)N[C@@H](C)C(=O)N[C@@H](CCC(N)=O)C(=O)N[C@@H](CCCNC(=N)N)C(=O)N[C@H](C(=O)N[C@@H](C)C(=O)N[C@@H](CCCNC(=N)N)C(=O)N[C@H](C(=O)NCCOCCOCCOCCOCCOCCOCCOCCOCCOCCOCCOCCOCCOCCOCCOCCOCCOCCOCCOCCOCCOCCOCCOCCOCCOCCOCCOCCOCCC(N)=O)[C@@H](C)O)C(C)C)C(C)C)C(C)C)C2=O)C(C)C)cc1)C(C)C (stereo partly shown) [[^64Cu]PDC-1, metal not drawn]
Cell binding: 7.9 ± 0.4%
